Results reported in publication PMC6679423 (International Journal of Molecular Sciences, 2019).

Legend:
Type in all cases: in vitro ADME
[1] = biological target: T1, human recombinant CYP3A4 (Homo sapiens, UniProt P08684); test: Vandetanib oxidation by human recombinant CYP3A4 (Supersomes)
T1 construct: purchased Gentest Corp; host or cells: insect cells (baculovirus)
Procedure: The purity of all chemicals met the standards of American Chemical Society, unless noted otherwise. […] Animals were placed in cages in temperature- and humidity-controlled rooms, acclimatized for five days and maintained at 22 °C with a 12 h light/dark period. Standardized diet and water were provided ad libitum. Rats, mice and rabbits used to prepare microsomal fraction from untreated animals were sacrificed by cervical dislocation, livers snap-frozen in liquid nitrogen and stored at −80 °C until further processing (see below). For controls, livers of the animals were removed immediately after sacrifice, divided into small pieces (~1 g), snap-frozen in liquid nitrogen, and stored at −80 °C until isolation of microsomal fractions. Pooled microsomes were used for all in vitro experiments in the present study and prepared from 10 livers/group for all animal species following established protocols. Microsomal fractions were stored at −80 °C until analysis. Protein concentrations in the microsomal fractions were assessed using the bicinchoninic acid protein assay with bovine serum albumin as a standard. […] Microsomes from livers of twelve human donors were obtained from Gentest Corp. (Woburn, MA, USA) (cat. no. HG43–1, HG103, HG74, HG93, HG24, HG27, HG23, HG32, HK31, HK34, HG03, and HG42). […]

[2] = tested on: human recombinant CYP3A5; test: Vandetanib oxidation by human recombinant CYP3A5 (Supersomes)
Procedure: Vandetanib was from LC Laboratories (Woburn, MA, USA). Ketoconazole, NADPH, methimazol and other chemicals were all purchased from Sigma-Aldrich (St. Louis, MO, USA). The purity of all chemicals met the standards of American Chemical Society, unless noted otherwise. All animal experiments were conducted in accordance with the Regulations for the Care and Use of Laboratory Animals (311/1997, Ministry of Agriculture, Czech Republic), which follows the Declaration of Helsinki. Male Wistar rats (~125–150 g; AnLab, Czech Republic), male C57BL/6 mice ([…]; CXR Bioscience Ltd., Dundee, UK), and male New Zealand rabbits (2.5–3 kg; AnLab, Czech Republic) were employed as animal models. Animals were placed in cages in temperature- and humidity-controlled rooms, acclimatized for five days and maintained at 22 °C with a 12 h light/dark period. Standardized diet and water were provided ad libitum. Rats, mice and rabbits used to prepare microsomal fraction from untreated animals were sacrificed by cervical dislocation, livers snap-frozen in liquid nitrogen and stored at −80 °C until further processing (see below). […] Protein concentrations in the microsomal fractions were assessed using the bicinchoninic acid protein assay with bovine serum albumin as a standard. […]

[3] = biological target: T2, human recombinant CYP1A1 (Homo sapiens, UniProt P04798); test: Vandetanib oxidation by human recombinant CYP1A1 (Supersomes)
T2 construct: purchased Gentest Corp; host or cells: insect cells (baculovirus)
T2 sequence (P04798 1-512): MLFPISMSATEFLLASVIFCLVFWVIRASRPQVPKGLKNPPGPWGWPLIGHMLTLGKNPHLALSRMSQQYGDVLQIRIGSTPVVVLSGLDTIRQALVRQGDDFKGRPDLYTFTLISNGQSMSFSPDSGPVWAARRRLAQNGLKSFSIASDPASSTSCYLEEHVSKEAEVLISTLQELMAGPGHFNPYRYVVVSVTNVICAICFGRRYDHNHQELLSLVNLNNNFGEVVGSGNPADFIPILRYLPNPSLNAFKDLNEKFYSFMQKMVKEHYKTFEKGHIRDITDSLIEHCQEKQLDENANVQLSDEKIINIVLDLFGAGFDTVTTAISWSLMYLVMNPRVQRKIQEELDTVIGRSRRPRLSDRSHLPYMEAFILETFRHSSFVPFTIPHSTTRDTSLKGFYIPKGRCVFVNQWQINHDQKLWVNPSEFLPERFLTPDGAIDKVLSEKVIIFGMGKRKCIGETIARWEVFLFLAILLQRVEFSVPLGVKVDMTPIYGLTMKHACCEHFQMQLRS
Procedure: Vandetanib was from LC Laboratories (Woburn, MA, USA). Ketoconazole, NADPH, methimazol and other chemicals were all purchased from Sigma-Aldrich (St. Louis, MO, USA). The purity of all chemicals met the standards of American Chemical Society, unless noted otherwise. All animal experiments were conducted in accordance with the Regulations for the Care and Use of Laboratory Animals (311/1997, Ministry of Agriculture, Czech Republic), which follows the Declaration of Helsinki. Male Wistar rats (~125–150 g; AnLab, Czech Republic), male C57BL/6 mice ([…]; CXR Bioscience Ltd., Dundee, UK), and male New Zealand rabbits (2.5–3 kg; AnLab, Czech Republic) were employed as animal models. Animals were placed in cages in temperature- and humidity-controlled rooms, acclimatized for five days and maintained at 22 °C with a 12 h light/dark period. Standardized diet and water were provided ad libitum. Rats, mice and rabbits used to prepare microsomal fraction from untreated animals were sacrificed by cervical dislocation, livers snap-frozen in liquid nitrogen and stored at −80 °C until further processing (see below). For controls, livers of the animals were removed immediately after sacrifice, divided into small pieces (~1 g), snap-frozen in liquid nitrogen, and stored at −80 °C until isolation of microsomal fractions. Pooled microsomes were used for all in vitro experiments in the present study and prepared from 10 livers/group for all animal species following established protocols. Microsomal fractions were stored at −80 °C until analysis. Protein concentrations in the microsomal fractions were assessed using the bicinchoninic acid protein assay with bovine serum albumin as a standard. Male human hepatic microsomes (pooled sample) (sample LOT: 3043885) were from Gentest Corp. (Woburn, MA, USA). Microsomes from livers of twelve human donors were obtained from Gentest Corp. (Woburn, MA, USA) (cat. no. HG43–1, HG103, HG74, HG93, HG24, HG27, HG23, HG32, HK31, HK34, HG03, and HG42). Each human microsomal sample has been characterized for CYP, FMO and protein contents and specific CYP activities by Gentest Corp. We reanalyzed each microsomal preparation for specific CYP, NADPH:CYP reductase (POR) and FMO activities by assays described in the protocols of Gentest Corp. Our data were similar to those reported by Gentest Corp. in their specification sheets. […]

[4] = without consideration of cytochrome b5

T1 sequence (P08684 2-503 limits assumed): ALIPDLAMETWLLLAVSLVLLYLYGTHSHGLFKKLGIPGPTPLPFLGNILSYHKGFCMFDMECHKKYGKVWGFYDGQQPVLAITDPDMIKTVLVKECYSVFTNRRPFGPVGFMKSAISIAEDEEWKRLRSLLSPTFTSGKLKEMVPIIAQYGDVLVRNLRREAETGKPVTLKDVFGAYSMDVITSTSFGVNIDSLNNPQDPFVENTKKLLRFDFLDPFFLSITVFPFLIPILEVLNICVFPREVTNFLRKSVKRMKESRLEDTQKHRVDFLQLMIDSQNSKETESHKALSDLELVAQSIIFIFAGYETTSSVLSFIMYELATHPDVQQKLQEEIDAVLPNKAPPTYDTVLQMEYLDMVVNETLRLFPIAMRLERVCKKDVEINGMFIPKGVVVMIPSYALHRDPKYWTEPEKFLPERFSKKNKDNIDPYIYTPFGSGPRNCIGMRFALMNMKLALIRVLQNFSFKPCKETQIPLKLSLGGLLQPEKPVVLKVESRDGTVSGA

- contribution of CYP3A4 to N-desmethylvandetanib formation in human liver ([1]; with cytochrome b5): ~ 99.6%
- contribution of CYP3A4 to N-desmethylvandetanib formation in human liver [1, 4]: ~ 97.7%
- fold increase of N-desmethylvandetanib formation by cytochrome b5 ([2]; CYP3A5 with vs without cytochrome b5): 7 fold
- contribution of CYP3A5 to N-desmethylvandetanib formation in human liver [2, 4]: < 0.3%
- effect of cytochrome b5 on N-desmethylvandetanib formation ([3]; CYP1A1 with vs without cytochrome b5): essentially no such effect
- contribution of CYP1A1 to N-desmethylvandetanib formation in human liver [3, 4]: < 0.3%
SMILES: COc1cc2c(Nc3ccc(Br)cc3F)ncnc2cc1OCC1CCNCC1 [N-desmethylvandetanib]
